Results from US10711004B2 (Genentech, Inc., priority 2018, dated 2020).
Read-outs that look alike come from different tables or passages of the source.

Biological target: human TRPA1 channel (Homo sapiens (Human), UniProt O75762)
Assay: hTRPA1 CHO Ca2+ FLIPR Tetra assay, block of cinnamaldehyde induced calcium influx
Type: cell-based
Conditions: CHO cells expressing TRPA1, Hill coefficient fixed to 1.5
Method in brief: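 Calcium-dye-loaded TRPA1-expressing CHO cells in HBSS/20 mM HEPES pH 7.4, 0.02% BSA were preincubated with compound for 10 or 90 min at room temperature. Calcium influx evoked by roughly an EC50 concentration of cinnamaldehyde was then read on FLIPR Tetra; IC50 came from curve fits with a fixed Hill coefficient.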

[1] = read-out: hTRPA1 IC50 (10 min), compounds incubated 10 minutes at room temperature before cinnamaldehyde agonist
[2] = read-out: hTRPA1 IC50 (90 min), compounds incubated 90 minutes at room temperature before cinnamaldehyde agonist

Chain of human TRPA1 channel (O75762 whole entry): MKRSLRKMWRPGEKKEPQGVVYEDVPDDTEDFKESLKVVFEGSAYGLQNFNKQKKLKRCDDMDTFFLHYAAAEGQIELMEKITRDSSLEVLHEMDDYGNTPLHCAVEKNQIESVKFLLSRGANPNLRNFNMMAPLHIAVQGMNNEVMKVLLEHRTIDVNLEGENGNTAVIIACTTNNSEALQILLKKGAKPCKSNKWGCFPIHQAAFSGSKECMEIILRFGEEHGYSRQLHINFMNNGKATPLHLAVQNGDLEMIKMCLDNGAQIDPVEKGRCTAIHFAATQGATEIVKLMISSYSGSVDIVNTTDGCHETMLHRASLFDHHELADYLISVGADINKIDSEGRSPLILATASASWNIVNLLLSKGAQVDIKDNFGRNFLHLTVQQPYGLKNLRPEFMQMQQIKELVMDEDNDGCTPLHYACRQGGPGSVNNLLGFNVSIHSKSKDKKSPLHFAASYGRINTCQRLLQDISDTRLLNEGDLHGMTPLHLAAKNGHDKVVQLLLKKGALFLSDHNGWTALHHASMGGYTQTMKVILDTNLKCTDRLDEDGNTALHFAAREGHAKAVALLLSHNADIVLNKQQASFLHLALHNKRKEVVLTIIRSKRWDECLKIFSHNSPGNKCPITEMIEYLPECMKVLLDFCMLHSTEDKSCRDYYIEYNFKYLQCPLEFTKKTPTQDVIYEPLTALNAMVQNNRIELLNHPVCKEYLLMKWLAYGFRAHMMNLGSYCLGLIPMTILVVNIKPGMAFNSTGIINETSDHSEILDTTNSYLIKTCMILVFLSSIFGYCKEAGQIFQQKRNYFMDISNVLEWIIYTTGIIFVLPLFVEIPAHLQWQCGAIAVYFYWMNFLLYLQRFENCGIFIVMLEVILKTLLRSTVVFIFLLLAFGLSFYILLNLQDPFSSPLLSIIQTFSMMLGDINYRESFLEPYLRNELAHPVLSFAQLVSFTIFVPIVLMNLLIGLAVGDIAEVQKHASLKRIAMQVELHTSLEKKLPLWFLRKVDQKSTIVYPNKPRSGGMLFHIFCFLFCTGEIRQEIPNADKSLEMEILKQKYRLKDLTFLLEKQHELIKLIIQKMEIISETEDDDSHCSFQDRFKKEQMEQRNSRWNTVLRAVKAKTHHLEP

SMILES | IC50 [1] [nM] | IC50 [2] [nM]
Cn1cnc2ncn(Cc3nc([C@@H]4[C@H]5C=C(c6ccc(Cl)cc6)C[C@H]54)no3)c(=O)c21 [Example Compound 142, 1-((3-((1R,5R,6S)-3-(4-chlorophenyl)bicyclo[3.1.0]hex-2-en-6-yl)-1,2,4-oxadiazol-5-yl)methyl)-7-methyl-1,7-dihydro-6H-purin-6-one] | 15.2 | 12
Cc1ccnc2ncn(Cc3nc([C@H]4C[C@](F)(c5cccc(F)c5)C4)no3)c(=O)c12 [Example Compound 143, 3-((3-((1s,3s)-3-fluoro-3-(3-fluorophenyl)cyclobutyl)-1,2,4-oxadiazol-5-yl)methyl)-5-methylpyrido[2,3-d]pyrimidin-4(3H)-one] | 33.7 | 28
Cn1cnc2ncn(Cc3nc([C@H]4[C@@H]5CN(c6cncc(F)c6)C[C@@H]54)no3)c(=O)c21 [Example Compound 144, 1-((3-((1R,5S,6r)-3-(5-fluoropyridin-3-yl)-3-azabicyclo[3.1.0]hexan-6-yl)-1,2,4-oxadiazol-5-yl)methyl)-7-methyl-1,7-dihydro-6H-purin-6-one] | 363 | 89
Cn1cnc2ncn(Cc3nc([C@H]4[C@@H]5CN(c6cncc(C(F)(F)F)c6)C[C@@H]54)no3)c(=O)c21 [Example Compound 145, 7-methyl-1-((3-((1R,5S,6r)-3-(5-(trifluoromethyl)pyridin-3-yl)-3-azabicyclo[3.1.0]hexan-6-yl)-1,2,4-oxadiazol-5-yl)methyl)-1,7-dihydro-6H-purin-6-one] | 797 | 480
Cn1cnc2ncn(Cc3nc([C@H]4[C@@H]5CN(c6ccnc(Cl)c6)C[C@@H]54)no3)c(=O)c21 [Example Compound 146, 1-((3-((1R,5S,6r)-3-(2-chloropyridin-4-yl)-3-azabicyclo[3.1.0]hexan-6-yl)-1,2,4-oxadiazol-5-yl)methyl)-7-methyl-1,7-dihydro-6H-purin-6-one] | 460 | 100
O=c1c2cccnc2ncn1Cc1nc([C@H]2C[C@H](Oc3cccc(F)c3)C2)no1 [Example Compound 147, 3-((3-((1r,3r)-3-(3-fluorophenoxy)cyclobutyl)-1,2,4-oxadiazol-5-yl)methyl)pyrido[2,3-d]pyrimidin-4(3H)-one] | 232 | 140
Cn1cnc2cnn(Cc3nc([C@H]4[C@@H]5CN(c6cc(Cl)ccn6)C[C@@H]54)no3)c(=O)c21 [Example Compound 148, 5-((3-((1R,5S,6r)-3-(4-chloropyridin-2-yl)-3-azabicyclo[3.1.0]hexan-6-yl)-1,2,4-oxadiazol-5-yl)methyl)-3-methyl-3,5-dihydro-4H-imidazo[4,5-d]pyridazin-4-one] | 305 | 150
Cn1nnc2ncn(Cc3nc([C@H]4C[C@](F)(c5ccc(Cl)cc5)C4)no3)c(=O)c21 [Example Compound 149, 6-((3-((1s,3s)-3-(4-chlorophenyl)-3-fluorocyclobutyl)-1,2,4-oxadiazol-5-yl)methyl)-1-methyl-1,6-dihydro-7H-[1,2,3]triazolo[4,5-d]pyrimidin-7-one] | 253 | 160
Cn1cnc2ncn(Cc3nc([C@H]4[C@@H]5CN(c6ccc(-c7cnco7)cc6)C[C@@H]54)no3)c(=O)c21 [Example Compound 150, 7-methyl-1-((3-((1R,5S,6r)-3-(4-(oxazol-5-yl)phenyl)-3-azabicyclo[3.1.0]hexan-6-yl)-1,2,4-oxadiazol-5-yl)methyl)-1,7-dihydro-6H-purin-6-one] | 162 | 38
O=c1c2cccnc2ncn1Cc1nc([C@H]2[C@@H]3CN(c4ccc(Cl)cn4)C[C@@H]32)no1 [Example Compound 151, 3-((3-((1R,5S,6r)-3-(5-chloropyridin-2-yl)-3-azabicyclo[3.1.0]hexan-6-yl)-1,2,4-oxadiazol-5-yl)methyl)pyrido[2,3-d]pyrimidin-4(3H)one] | 40 | 38
O=c1c2cccnc2cnn1Cc1nc([C@H]2[C@@H]3CN(c4ccnc(F)c4)C[C@@H]32)no1 [Example Compound 152, 6-((3-((1R,5S,6r)-3-(2-fluoropyridin-4-yl)-3-azabicyclo[3.1.0]hexan-6-yl)-1,2,4-oxadiazol-5-yl)methyl)pyrido[2,3-d]pyridazin-5(6H)-one] | 58.7 | 41
O=c1c2cccnc2cnn1Cc1nc([C@H]2[C@@H]3CN(c4cc(F)ccn4)C[C@@H]32)no1 [Example Compound 153, 6-((3-((1R,5S,6r)-3-(4-fluoropyridin-2-yl)-3-azabicyclo[3.1.0]hexan-6-yl)-1,2,4-oxadiazol-5-yl)methyl)pyrido[2,3-d]pyridazin-5(6H)-one] | 95.7 | 60
O=c1c2cccnc2ncn1Cc1nc([C@H]2[C@@H]3CN(c4cc(F)ccn4)C[C@@H]32)no1 [Example Compound 154, 3-((3-((1R,5S,6r)-3-(4-fluoropyridin-2-yl)-3-azabicyclo[3.1.0]hexan-6-yl)-1,2,4-oxadiazol-5-yl)methyl)pyrido[2,3-d]pyrimidin-4(3H)-one] | 196 | 130
Cn1ncc2ncn(Cc3nc([C@H]4[C@@H]5CN(c6cc(Cl)ccn6)C[C@@H]54)no3)c(=O)c21 [Example Compound 155, 6-((3-((1R,5S,6r)-3-(4-chloropyridin-2-yl)-3-azabicyclo[3.1.0]hexan-6-yl)-1,2,4-oxadiazol-5-yl)methyl)-1-methyl-1,6-dihydro-7H-pyrazolo[4,3-d]pyrimidin-7-one] | 89.3 | 73
Cn1cnc2ncn(Cc3nc([C@H]4[C@@H]5CN(C[C@@H](F)c6ccc(Cl)cc6)C[C@@H]54)no3)c(=O)c21 [Example Compound 156, 1-((3-((1R,5S,6S)-3-((S)-2-(4-chlorophenyl)-2-fluoroethyl)-3-azabicyclo[3.1.0]hexan-6-yl)-1,2,4-oxadiazol-5-yl)methyl)-7-methyl-1,7-dihydro-6H-purin-6-one] | 843 | 860
O=c1c2cccnc2cnn1Cc1nc([C@H]2C[C@](F)(c3ccc(Cl)cc3)C2)no1 [Example Compound 157, 6-((3-((1s,3s)-3-(4-chlorophenyl)-3-fluorocyclobutyl)-1,2,4-oxadiazol-5-yl)methyl)pyrido[2,3-d]pyridazin-5(6H)-one] | 98.9 | 59
Cc1cc(C#N)nc2ncn(Cc3nc([C@H]4C[C@](F)(c5ccc(Cl)cc5)C4)no3)c(=O)c12 [Example Compound 158, 3-((3-((1s,3s)-3-(4-chlorophenyl)-3-fluorocyclobutyl)-1,2,4-oxadiazol-5-yl)methyl)-5-methyl-4-oxo-3,4-dihydropyrido[2,3-d]pyrimidine-7-carbonitrile] | 19.4 | 10
Cn1cnc2ncn(Cc3nc([C@@H]4[C@H]5C=C(c6cc(Cl)ccn6)C[C@H]54)no3)c(=O)c21 [Example Compound 159, 1-((3-((1R,5R,6S)-3-(4-chloropyridin-2-yl)bicyclo[3.1.0]hex-2-en-6-yl)-1,2,4-oxadiazol-5-yl)methyl)-7-methyl-1,7-dihydro-6H-purin-6-one] | 119 | 68
Cn1cnc2ncn(Cc3nc([C@H]4[C@@H]5C=C(c6cc(Cl)ccn6)C[C@@H]54)no3)c(=O)c21 [Example Compound 160, 1-((3-((1S,5S,6R)-3-(4-chloropyridin-2-yl)bicyclo[3.1.0]hex-2-en-6-yl)-1,2,4-oxadiazol-5-yl)methyl)-7-methyl-1,7-dihydro-6H-purin-6-one] | 91.5 | 31
O=c1c2cccnc2ncn1Cc1nc([C@H]2[C@@H]3C=C(c4cc(Cl)ccn4)C[C@@H]32)no1 [Example Compound 161, 3-((3-((1S,5S,6R)-3-(4-chloropyridin-2-yl)bicyclo[3.1.0]hex-2-en-6-yl)-1,2,4-oxadiazol-5-yl)methyl)pyrido[2,3-d]pyrimidin-4(3H)-one] | 315 | 200
O=c1c2cccnc2ncn1Cc1nc([C@@H]2[C@H]3C=C(c4cc(Cl)ccn4)C[C@H]32)no1 [Example Compound 162, 3-((3-((1R,5R,6S)-3-(4-chloropyridin-2-yl)bicyclo[3.1.0]hex-2-en-6-yl)-1,2,4-oxadiazol-5-yl)methyl)pyrido[2,3-d]pyrimidin-4(3H)-one] | 132 | 88
Cn1cc(-c2cc(Cl)cc(N3C[C@@H]4[C@H](C3)[C@H]4c3noc(Cn4cnc5ncn(C)c5c4=O)n3)c2)cn1 [Example Compound 163, 1-((3-((1R,5S,6r)-3-(3-chloro-5-(1-methyl-1H-pyrazol-4-yl)phenyl)-3-azabicyclo[3.1.0]hexan-6-yl)-1,2,4-oxadidzol-5-yl)methyl)-7-methyl-1,7-dihydro-6H-purin-6-one] | 71.3 | 23
Cc1ccnc2ncn(Cc3nc([C@H]4C[C@H](c5ccc(F)cc5)C4)no3)c(=O)c12 [Example Compound 164, 3-((3-((1r,3r)-3-(4-fluorophenyl)cyclobutyl)-1,2,4-oxadiazol-5-yl)methyl)-5-methylpyrido[2,3-d]pyrimidin-4(3H)-one] | 15.1 | –
Cc1ccnc2ncn(Cc3nc([C@H]4[C@@H]5Oc6c(Cl)cccc6[C@@H]54)no3)c(=O)c12 [Example Compound 165, 3-((3-((1S,1aR,6bS)-3-chloro-1a,6b-dihydro-1H-cyclopropa[b]benzofuran-1-yl)-1,2,4-oxadiazol-5-yl)methyl)-5-methylpyrido[2,3-d]pyrimidin-4(3H)-one] | 22.2 | –
Cc1cc(C#N)nc2ncn(Cc3nc([C@H]4C[C@](F)(c5ccc(F)cc5)C4)no3)c(=O)c12 [Example Compound 166, 3-((3-((1s,3s)-3-fluoro-3-(4-fluorophenyl)cyclobutyl)-1,2,4-oxadiazol-5-yl)methyl)-5-methyl-4-oxo-3,4-dihydropyrido[2,3-d]pyrimidine-7-carbonitrile] | 37.6 | –
